Assay [1] concerns the target T1, Muscarinic acetylcholine receptor M1 (Homo sapiens, UniProt P11229).
T1 sequence (P11229 whole entry): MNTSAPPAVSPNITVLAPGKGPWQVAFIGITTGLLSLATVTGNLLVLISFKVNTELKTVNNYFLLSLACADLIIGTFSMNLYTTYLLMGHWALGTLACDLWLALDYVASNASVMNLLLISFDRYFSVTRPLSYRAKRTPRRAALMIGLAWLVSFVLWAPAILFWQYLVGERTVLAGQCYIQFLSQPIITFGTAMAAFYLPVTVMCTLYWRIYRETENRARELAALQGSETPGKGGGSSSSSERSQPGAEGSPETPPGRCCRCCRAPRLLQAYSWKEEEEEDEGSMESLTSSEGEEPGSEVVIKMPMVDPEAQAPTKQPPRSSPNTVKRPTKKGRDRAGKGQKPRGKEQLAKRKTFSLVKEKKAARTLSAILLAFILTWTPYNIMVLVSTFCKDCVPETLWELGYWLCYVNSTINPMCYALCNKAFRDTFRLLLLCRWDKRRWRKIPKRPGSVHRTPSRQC
Description: Displacement of QNB from muscarinic M1 receptor.

Assay [2] deals with T2, Muscarinic acetylcholine receptor M2 (Homo sapiens, UniProt P08172).
T2 sequence (P08172 whole entry): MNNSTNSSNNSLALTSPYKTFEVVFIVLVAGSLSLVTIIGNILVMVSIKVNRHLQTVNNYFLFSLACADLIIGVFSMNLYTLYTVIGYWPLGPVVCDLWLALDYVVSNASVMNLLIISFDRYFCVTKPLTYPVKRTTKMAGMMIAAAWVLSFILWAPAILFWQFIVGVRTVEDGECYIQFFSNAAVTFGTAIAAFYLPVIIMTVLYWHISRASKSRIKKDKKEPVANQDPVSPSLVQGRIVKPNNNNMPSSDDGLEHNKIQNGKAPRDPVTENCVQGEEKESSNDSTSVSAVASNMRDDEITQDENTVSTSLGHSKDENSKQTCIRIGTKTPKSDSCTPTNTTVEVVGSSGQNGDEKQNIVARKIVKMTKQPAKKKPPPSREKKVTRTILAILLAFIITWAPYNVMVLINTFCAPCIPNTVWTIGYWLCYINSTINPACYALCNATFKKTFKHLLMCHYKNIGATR
Description: Displacement of QNB from muscarinic M2 receptor.

Assay [3] concerns the target T3, Muscarinic acetylcholine receptor M4 (Homo sapiens, UniProt P08173).
T3 sequence (P08173 whole entry): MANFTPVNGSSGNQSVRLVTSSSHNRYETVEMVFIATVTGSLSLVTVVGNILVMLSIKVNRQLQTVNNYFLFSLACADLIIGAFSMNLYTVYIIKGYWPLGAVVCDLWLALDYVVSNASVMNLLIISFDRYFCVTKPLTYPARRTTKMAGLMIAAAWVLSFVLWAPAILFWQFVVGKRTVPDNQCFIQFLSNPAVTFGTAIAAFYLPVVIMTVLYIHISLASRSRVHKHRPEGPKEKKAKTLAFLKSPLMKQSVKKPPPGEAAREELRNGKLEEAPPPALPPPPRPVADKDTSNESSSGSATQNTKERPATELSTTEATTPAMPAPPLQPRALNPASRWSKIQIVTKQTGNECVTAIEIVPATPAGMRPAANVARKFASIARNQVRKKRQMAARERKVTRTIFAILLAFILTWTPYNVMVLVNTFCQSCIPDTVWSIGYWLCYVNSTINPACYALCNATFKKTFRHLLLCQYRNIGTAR
Description: Displacement of QNB from muscarinic M4 receptor.

In general, IC50 refers to the concentration at which inhibition is half-maximal.

On to `NC(N)=NCCCCCCCCC(=O)C(N)CCCN=C(N)N` (stereo unspecified), for which the IC50 in assay [1] turned out to be 7 nM; in assay [2], 6 nM; in assay [3], 10 nM.
On the same counts, the results for `CC(=O)NC(CCCNC(=N)N)C(=O)CCCCCCCCNC(=N)N` (stereo unspecified) are 1410 nM, 960 nM and 910 nM.

The values are drawn from ChEMBL document CHEMBL1159254, “Isolation and structure of two novel muscarinic receptor antagonists” (J Nat Prod, 1995).
